Measurements reported in article PMC3833878, “In Silico Molecular Comparisons of C. elegans and Mammalian Pharmacology Identify Distinct Targets That Regulate Feeding” (PLoS Biology, 2013).

Legend:
wild-type C. elegans = experiment: Pharyngeal pumping assay; assay type: in vivo; conditions: for increase in pharyngeal pumping / exposure time after which the feeding elevating effect was notable: 10 µM; for increase in pharyngeal pumping: cultured 3 d from L1, long-term video (60 s) and short-term manual (10 s) measurements; for exposure time after which the feeding elevating effect was notable: naïve day 1 gravid adults; for effect on the pharyngeal pumping rate: 10 µM versus 0.1% DMSO; for EC50: Caenorhabditis elegans, read-out: EC50 of the dose-dependent increase in the pharyngeal pumping rate
Description: (§1) Compounds at 1,000× stock concentrations (0.1–10 mM) in DMSO or an equal volume of DMSO were diluted in a suspension of E. coli OP-50 (100 µl of a 3× concentrated overnight culture in LB broth) and absorbed as a single drop onto 3.5 cm plates containing 2.5 ml of NGM agar forming a well-defined lawn of bacteria. For developmental exposures, 20–30 synchronized first larval stage C. elegans derived from alkaline hypochlorite treatment of gravid adults were applied to the preseeded plates and cultured until assay at mid-L4 stage (2 d, 20°C) or as day 1 gravid adults (3 d, 20°C). For naïve adult exposures, synchronized first larval stage animals were cultured on NGM-agar plates seeded with E. coli OP-50 for 3 d at 20°C, then transferred to assay plates, and pumping was assayed 1 to 16 h later. Comparisons between vehicle-treated and compound-treated animals were always performed between animals at the same developmental stage and same exposure time. Pharyngeal pumping was counted by live observation at 115–200× magnification using a stereo microscope and recorded at 10 s intervals using a manually controlled digital cell counter. Alternatively, C. elegans pumping was recorded for longer intervals (30–60 s) using bright-field time-lapse microscopy at 120× magnification with a 20 images per second acquisition rate. The resulting movies were analyzed manually at a playback rate of 10 images per second.
(§2) Significance was determined by one-way ANOVA applying a Dunnett's posttest when comparing multiple treatments to a single control and a Bonferroni posttest when comparing the more than two treatments against one another. For pairwise nonrepeated measured comparisons, a student's t test was used. To express data as a percentage of control, the pumping rates of compound-treated animals were divided by the mean pumping rate of the DMSO-treated wild-type animals measured in the same experiment, unless indicated otherwise. Error bars on the control samples indicate the variation around that mean, which is utilized in all statistical calculations.

[1] = system: mgl-2(tm355) mutant C. elegans; experiment: Pharyngeal pumping assay, compound on high-feeding mutant; assay type: in vivo; conditions: to C. elegans mgl-2 (F45H11.4), homolog of human mGluR-8
Description: as §1, §2
(§3) The pumping rates are expressed as a percentage of the mutant’s pumping rate on DMSO, the vehicle control. p-values were calculated relative to DMSO treatment of each mutant by one-way ANOVA using Dunnett’s multiple comparison test.

MGLUR2 = molecular target: T1, MGLUR2 (Homo sapiens, UniProt Q14416); experiment: Cell-based mGluR activity assay; conditions: 10 µM B16
T1 construct: expressed in transfected cells
Description: (§4) Tachykinin, ghrelin, and calcium-sensing receptor activity were measured using a cell-based Ca flux assay by Multispan, Inc. (Hayward, California). Cholescystokinin A and B receptors were assayed for effects on cAMP production, and nicotinic acid receptor activity was measured in a cell-based assay of forskolin-stimulated cAMP production by Multispan, Inc. […], PP2A phosphatase activity assays were performed by CEREP (Celle l'Evescault, France) using PP2A from human erythrocytes. Phospholipase C from Bacillus cereus was assayed by CEREP, Inc. using glycero-phosphatidyl ethanolamine as a substrate, monitoring diacyl glycerol production. Radioligand binding assays for PPAR-α, γ, δ and the androgen receptor were performed by CEREP, Inc. CARNA Biosciences (Kobe, Japan) performed in vitro kinase activity assays using recombinant catalytic domains and measured phosphorylation of an Src-derived peptide for Flt-3 and phosphatidyl inositol for PI3KCA. Radioligand binding assays for the oxytocin receptor, D4 dopamine receptor, cannabinoid CB2 receptor, and angiotensin type I and II receptors were performed as described previously, as were cell-based activity assays for mGluR 1a, 2, 4, 5, 6, and 8 [60]–[62].
(§5) Table S2. Activity of 10 µM B16 on human metabotropic glutamate receptors.
(§6) ^a Data are normalized to the maximum response of cells treated with 1 mM glutamate or 0.1 mM AP4 alone.
(§7) ^b Percent difference in maximum activity of cells treated with glutamate or AP4 with B16 vehicle versus concurrent treatment with 10 µM B16.

MGLUR4 = molecular target: T2, MGLUR4 (Homo sapiens, UniProt Q14833); experiment: Cell-based mGluR activity assay; conditions: 10 µM B16
T2 construct: expressed in transfected cells
T2 sequence (Q14833 33-912): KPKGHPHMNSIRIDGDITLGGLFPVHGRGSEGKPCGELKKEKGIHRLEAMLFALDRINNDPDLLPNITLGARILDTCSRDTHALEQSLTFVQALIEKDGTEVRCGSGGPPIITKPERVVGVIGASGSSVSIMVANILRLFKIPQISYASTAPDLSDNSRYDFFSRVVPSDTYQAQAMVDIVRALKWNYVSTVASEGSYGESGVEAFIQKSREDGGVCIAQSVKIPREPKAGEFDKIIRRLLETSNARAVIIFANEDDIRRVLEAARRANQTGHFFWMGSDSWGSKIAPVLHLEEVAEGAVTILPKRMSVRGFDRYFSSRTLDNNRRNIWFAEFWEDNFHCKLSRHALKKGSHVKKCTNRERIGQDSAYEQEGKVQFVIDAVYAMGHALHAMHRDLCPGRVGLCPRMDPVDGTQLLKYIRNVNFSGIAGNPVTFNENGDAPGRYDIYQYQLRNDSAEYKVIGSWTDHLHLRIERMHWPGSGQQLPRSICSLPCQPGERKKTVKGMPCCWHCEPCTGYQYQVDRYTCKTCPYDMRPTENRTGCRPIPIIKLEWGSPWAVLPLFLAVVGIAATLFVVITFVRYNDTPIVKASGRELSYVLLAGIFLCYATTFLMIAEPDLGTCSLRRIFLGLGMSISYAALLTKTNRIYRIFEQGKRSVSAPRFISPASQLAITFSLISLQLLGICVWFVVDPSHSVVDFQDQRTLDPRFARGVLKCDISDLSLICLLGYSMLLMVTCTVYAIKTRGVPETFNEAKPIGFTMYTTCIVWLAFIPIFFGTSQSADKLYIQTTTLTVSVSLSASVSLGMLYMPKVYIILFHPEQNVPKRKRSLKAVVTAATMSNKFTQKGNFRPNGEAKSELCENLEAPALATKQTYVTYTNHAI
Description: as §4, §5, §6, §7

MGLUR6 = molecular target: T3, MGLUR6 (Homo sapiens, UniProt O15303); experiment: Cell-based mGluR activity assay; conditions: 10 µM B16
T3 construct: expressed in transfected cells
Description: as §4, §5, §6, §7

MGLUR5 = molecular target: T4, MGLUR5 (Homo sapiens, UniProt P41594); experiment: Cell-based mGluR activity assay
T4 construct: expressed in transfected cells
T4 sequence (P41594 21-1212): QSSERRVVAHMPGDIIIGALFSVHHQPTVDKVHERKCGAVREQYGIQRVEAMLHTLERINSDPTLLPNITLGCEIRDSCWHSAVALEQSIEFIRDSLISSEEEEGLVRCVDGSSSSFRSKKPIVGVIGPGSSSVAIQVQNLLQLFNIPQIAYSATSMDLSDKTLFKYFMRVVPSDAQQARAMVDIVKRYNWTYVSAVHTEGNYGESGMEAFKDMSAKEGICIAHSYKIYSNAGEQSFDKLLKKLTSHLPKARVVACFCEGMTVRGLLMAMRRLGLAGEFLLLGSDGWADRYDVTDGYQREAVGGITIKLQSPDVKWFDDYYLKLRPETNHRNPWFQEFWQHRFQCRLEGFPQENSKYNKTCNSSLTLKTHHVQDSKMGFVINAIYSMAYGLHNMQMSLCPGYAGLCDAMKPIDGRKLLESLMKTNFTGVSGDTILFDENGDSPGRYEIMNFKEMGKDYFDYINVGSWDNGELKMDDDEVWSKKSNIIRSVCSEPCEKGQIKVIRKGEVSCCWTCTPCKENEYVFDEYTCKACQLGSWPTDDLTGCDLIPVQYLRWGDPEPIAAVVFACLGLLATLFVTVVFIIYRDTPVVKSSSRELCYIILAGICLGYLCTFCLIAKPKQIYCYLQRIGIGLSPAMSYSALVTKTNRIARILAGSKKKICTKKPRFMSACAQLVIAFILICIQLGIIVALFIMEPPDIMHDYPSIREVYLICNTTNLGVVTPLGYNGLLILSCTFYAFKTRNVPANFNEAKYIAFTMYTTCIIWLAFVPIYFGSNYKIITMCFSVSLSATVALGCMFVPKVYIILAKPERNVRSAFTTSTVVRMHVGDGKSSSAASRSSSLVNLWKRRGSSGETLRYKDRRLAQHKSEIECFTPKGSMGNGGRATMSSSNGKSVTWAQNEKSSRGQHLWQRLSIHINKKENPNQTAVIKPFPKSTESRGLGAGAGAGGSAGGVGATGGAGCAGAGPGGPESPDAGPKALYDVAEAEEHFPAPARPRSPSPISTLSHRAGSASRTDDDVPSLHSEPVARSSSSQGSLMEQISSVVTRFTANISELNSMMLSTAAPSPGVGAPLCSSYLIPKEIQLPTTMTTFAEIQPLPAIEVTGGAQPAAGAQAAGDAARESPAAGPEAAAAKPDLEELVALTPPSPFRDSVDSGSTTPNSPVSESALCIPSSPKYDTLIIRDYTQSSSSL
Description: as §4, §5, §6, §7

MGLUR1a = molecular target: T5, MGLUR1a (Homo sapiens, UniProt Q13255); experiment: Cell-based mGluR activity assay; conditions: 10 µM B16
T5 construct: expressed in transfected cells
Description: as §4, §5, §6, §7

mglur-8 = molecular target: T6, mglur-8 (Rattus norvegicus, UniProt P70579); experiment: Cell-based mGluR-8 activity assay, CHO cells stimulated with 1 µM L-AP4, concentration response
T6 construct: expressed in transfected cells; host or cells: CHO cells
Description: as §4
(§8) Supplementary file pbio.1001712.s001.tif: Figure S1 Dose-response measurements that validate SEA predictions for GPCRs. […]

C. elegans = system: C. elegans; design: method as in earlier work; conditions: earlier phenotypic screen ref 11; cited from earlier work
MGLUR8 = experiment: Cell-based mGluR activity assay; design: species or system human; conditions: 10 µM B16
Description: as §4
Table S2. Activity of 10 µM B16 on human metabotropic glutamate receptors. […]

[2] = system: ver-3(ok891) mutant C. elegans; experiment: Pharyngeal pumping assay, compound on high-feeding mutant; assay type: in vivo; conditions: to C. elegans ver-3 (F59F3.1), homolog of human Flt-3 receptor
Description: as §1, §2, §3

flt-3 receptor (CD135) = molecular target: T7, flt-3 receptor (CD135) (Homo sapiens, UniProt P36888); experiment: In vitro kinase activity assay, recombinant Flt-3 receptor catalytic domain, srctide phosphorylation (CARNA); assay type: biochemical
T7 construct: Flt-3 receptor catalytic domain (amino acids 564–993); purchased CARNA Biosciences (Kobe, Japan)
T7 sequence (P36888 564-993): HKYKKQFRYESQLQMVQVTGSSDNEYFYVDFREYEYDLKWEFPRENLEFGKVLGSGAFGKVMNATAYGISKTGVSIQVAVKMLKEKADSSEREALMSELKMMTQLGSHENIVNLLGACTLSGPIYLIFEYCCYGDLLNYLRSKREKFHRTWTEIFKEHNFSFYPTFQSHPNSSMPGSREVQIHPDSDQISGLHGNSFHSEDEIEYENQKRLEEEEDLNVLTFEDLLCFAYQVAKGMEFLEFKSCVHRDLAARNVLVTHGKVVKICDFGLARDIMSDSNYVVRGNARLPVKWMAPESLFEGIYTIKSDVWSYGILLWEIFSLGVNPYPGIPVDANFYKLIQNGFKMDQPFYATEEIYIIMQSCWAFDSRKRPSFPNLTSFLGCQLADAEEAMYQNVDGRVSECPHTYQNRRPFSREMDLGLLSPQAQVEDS
Description: as §4, with “Radioligand binding assays for the oxytocin receptor, D4 dopamine receptor, cannabinoid CB2 receptor, and angiotensin type I and II receptors were performed as described previously, as were cell-based activity assays for mGluR 1a, 2, 4, 5, 6, and 8 [60]–[62].” left out
(§9) Supplementary file pbio.1001712.s002.tif: Figure S2 Dose-dependent inhibitory activity for compounds predicted by SEA to inhibit kinases. (A–B) Varying concentrations of J6 and L10 were incubated with full-length recombinant human PI3KCA and ATP (50 µM) for 5 h and the phosphorylation level of the substrate phosphatidylinositol was measured. […]

[3] = system: gnrr-1(ok238) mutant C. elegans; experiment: Pharyngeal pumping assay, compound on high-feeding mutant; assay type: in vivo; conditions: to C. elegans gnrr-1 (F54D7.3), homolog of human Oxtr
Description: as §1, §2, §3

oxytocin receptor = oxytocin receptor (Homo sapiens, UniProt P30559); experiment: Radioligand binding assay, 3H-oxytocin binding to the oxytocin receptor
Sequence of oxytocin receptor (P30559 whole entry): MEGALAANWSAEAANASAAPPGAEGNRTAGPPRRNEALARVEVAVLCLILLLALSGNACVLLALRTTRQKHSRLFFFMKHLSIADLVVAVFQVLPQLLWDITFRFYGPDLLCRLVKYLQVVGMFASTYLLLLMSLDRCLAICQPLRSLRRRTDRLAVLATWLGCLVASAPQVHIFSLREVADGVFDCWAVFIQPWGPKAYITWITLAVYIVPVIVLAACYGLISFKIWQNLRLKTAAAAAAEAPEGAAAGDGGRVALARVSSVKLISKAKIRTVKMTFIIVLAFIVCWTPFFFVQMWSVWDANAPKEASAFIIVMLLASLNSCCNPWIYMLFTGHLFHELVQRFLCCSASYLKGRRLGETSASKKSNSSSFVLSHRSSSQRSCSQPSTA
Description: as §4, §8

androgen receptor = androgen receptor (Homo sapiens, UniProt P10275); experiment: Radioligand binding assay, 3H-Mibolerone binding to the androgen receptor (CEREP)
Description: as §4, with “[60]-[62]. Supplementary file pbio.1001712.s003.tif: Figure S3 Dose-response relationships for compounds that bind nuclear hormone receptors. […]” for “[60]–[62].”

dopamine receptor D4 = dopamine receptor D4 (Homo sapiens, UniProt P21917); experiment: Radioligand binding assay, 3H-risperidone binding to the dopamine D4 receptor
Description: as §4, §8

PPAR-γ = molecular target: T8, PPAR-γ (Homo sapiens, UniProt P37231); experiment: Radioligand binding assay, 3H-Rosiglitazone binding to PPAR-γ (CEREP)
T8 construct: CEREP, Inc. (assay run by the contract laboratory)
Description: as §4
Supplementary file pbio.1001712.s003.tif: Figure S3 Dose-response relationships for compounds that bind nuclear hormone receptors. […]

PI3K p110α = molecular target: T9, PI3K p110α (Homo sapiens, UniProt P42336); experiment: In vitro kinase activity assay, recombinant PI3KCA, phosphatidylinositol phosphorylation (CARNA); assay type: biochemical; conditions: marked with footnote d in Figure 2; 50 µM ATP, 5 h
T9 construct: full-length recombinant human PI3KCA; purchased CARNA Biosciences (Kobe, Japan)
T9 sequence (P42336 whole entry): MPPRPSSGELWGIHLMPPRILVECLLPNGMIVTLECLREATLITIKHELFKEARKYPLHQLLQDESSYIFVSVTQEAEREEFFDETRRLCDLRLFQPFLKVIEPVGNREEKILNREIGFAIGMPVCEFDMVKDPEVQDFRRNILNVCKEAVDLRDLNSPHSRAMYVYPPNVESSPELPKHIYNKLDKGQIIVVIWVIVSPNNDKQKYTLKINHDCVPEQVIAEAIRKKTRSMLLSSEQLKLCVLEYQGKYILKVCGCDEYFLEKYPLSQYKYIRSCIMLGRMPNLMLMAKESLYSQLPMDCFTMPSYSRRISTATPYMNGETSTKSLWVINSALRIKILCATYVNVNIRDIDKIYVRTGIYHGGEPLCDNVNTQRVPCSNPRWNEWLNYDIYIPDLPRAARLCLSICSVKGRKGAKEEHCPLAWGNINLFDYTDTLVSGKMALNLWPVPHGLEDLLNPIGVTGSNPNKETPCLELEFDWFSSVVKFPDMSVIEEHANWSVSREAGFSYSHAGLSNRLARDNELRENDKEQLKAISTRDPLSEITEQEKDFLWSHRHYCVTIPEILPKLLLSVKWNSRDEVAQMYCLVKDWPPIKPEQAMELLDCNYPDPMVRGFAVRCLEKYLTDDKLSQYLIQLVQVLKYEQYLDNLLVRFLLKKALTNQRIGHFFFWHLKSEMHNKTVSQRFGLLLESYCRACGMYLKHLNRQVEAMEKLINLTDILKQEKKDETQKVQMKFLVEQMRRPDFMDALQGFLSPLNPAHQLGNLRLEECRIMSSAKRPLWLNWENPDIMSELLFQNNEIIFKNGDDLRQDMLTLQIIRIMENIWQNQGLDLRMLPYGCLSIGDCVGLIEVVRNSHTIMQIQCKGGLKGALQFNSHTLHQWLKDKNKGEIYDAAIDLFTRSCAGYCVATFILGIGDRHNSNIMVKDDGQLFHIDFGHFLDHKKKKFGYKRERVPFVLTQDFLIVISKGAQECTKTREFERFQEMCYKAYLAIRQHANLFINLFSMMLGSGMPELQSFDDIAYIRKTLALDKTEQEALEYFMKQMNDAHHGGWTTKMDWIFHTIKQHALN
T9 sequence (P27986 whole entry partner): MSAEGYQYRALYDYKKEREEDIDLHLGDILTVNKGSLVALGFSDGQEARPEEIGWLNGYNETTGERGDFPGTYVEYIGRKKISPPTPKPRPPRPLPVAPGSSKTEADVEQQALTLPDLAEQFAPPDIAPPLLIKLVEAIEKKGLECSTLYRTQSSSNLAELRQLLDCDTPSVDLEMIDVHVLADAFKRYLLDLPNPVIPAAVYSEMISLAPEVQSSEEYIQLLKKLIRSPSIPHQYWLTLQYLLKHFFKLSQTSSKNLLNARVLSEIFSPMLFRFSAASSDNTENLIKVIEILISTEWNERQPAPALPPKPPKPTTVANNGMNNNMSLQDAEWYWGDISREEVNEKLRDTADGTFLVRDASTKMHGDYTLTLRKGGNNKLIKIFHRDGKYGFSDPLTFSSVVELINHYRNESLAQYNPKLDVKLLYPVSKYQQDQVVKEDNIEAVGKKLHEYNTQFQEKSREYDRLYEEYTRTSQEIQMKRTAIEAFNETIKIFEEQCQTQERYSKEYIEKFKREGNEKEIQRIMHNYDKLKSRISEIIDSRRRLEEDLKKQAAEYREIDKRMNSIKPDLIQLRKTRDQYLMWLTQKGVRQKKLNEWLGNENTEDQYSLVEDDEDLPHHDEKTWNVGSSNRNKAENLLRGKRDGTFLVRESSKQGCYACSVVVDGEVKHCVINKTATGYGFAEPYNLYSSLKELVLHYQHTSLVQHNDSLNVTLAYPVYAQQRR
Description: as §4, with “Radioligand binding assays for the oxytocin receptor, D4 dopamine receptor, cannabinoid CB2 receptor, and angiotensin type I and II receptors were performed as described previously, as were cell-based activity assays for mGluR 1a, 2, 4, 5, 6, and 8 [60]–[62].” left out
as §9

[4] = normalized to the maximum response of cells treated with 1 mM glutamate or 0.1 mM AP4 alone
[5] = percent difference in maximum activity of cells treated with glutamate or AP4 with vehicle versus B16
[6] = wild-type, serial 3-fold dilutions

In the case of Cc1cc(C)c2c(N)c(C(=O)Nc3ccccn3)sc2n1 [B16], the “increase in pharyngeal pumping” value (wild-type C. elegans) is reported as 7%–12%, the “exposure time after which the feeding elevating effect was notable” value (shortened to “exposure time”) (wild-type C. elegans) is reported as at most 1 h and the “effect on the pharyngeal pumping rate” value (wild-type C. elegans; wild-type) is reported as “increased”. The Pharmacological relationship [1] was “antagonist”, the “% agonism” value (MGLUR2; [4]) was 0% and the inhibition at 10 µM (MGLUR2; [5]) was 12%. The “% agonism” value (MGLUR4; [4]) was -8%, the inhibition at 10 µM (MGLUR4; [5]) was 4% and the “% agonism” value (MGLUR6; [4]) was 13%. For the same molecule, the inhibition at 10 µM (MGLUR6; [5]) was -17%, the “% agonism” value (MGLUR5; 10 µM B16, normalized to the maximum response of cells treated with 1 mM glutamate or 0.1 mM AP4 alone) was -14% and the inhibition at 10 µM (MGLUR5; 10 µM B16, percent difference in maximum activity of cells treated with glutamate or AP4 with vehicle versus B16) was 11%. For the same molecule, the Ki (MGLUR5; Figure 2) was over 30000 nM, the “% agonism” value (MGLUR1a; [4]) was -4% and the inhibition at 10 µM (MGLUR1a; [5]) was 24%. For the same molecule, the Ki (mglur-8) was 9800 nM, the “Nile Red staining” value (C. elegans) was “decreased” and the “% agonism” value (MGLUR8; [4]) was -3%. The “% inhibition” value (MGLUR8; [5]) was 49%.
In the case of Cc1sc(NC(=O)c2ccccc2Br)c(C(N)=O)c1C [D20], the “increase in pharyngeal pumping” value (wild-type C. elegans) is reported as 7%–12%, the “exposure time” value (wild-type C. elegans) is reported as at most 1 h and the EC50 (wild-type C. elegans; [6]) is reported as 600 nM. The “effect on the pharyngeal pumping rate” value (wild-type C. elegans; wild-type) was “increased”, the Pharmacological relationship [2] was “antagonist” and the “Nile Red staining” value (C. elegans) was “decreased”. For the same molecule, the Ki (flt-3 receptor (CD135); marked with footnote d in Figure 2, 100 µM ATP, 1 h) was 169 nM.
For COc1ccc(N(CC(=O)NCc2ccco2)S(=O)(=O)c2ccccc2)cc1Cl [F15], the “increase in pharyngeal pumping” value (wild-type C. elegans) was 7%–12%, the “exposure time” value (wild-type C. elegans) was at most 1 h and the EC50 (wild-type C. elegans; [6]) was 400 nM. The “effect on the pharyngeal pumping rate” value (wild-type C. elegans; wild-type) was “increased”, the Pharmacological relationship [3] was “antagonist” and the Ki (oxytocin receptor) was 1800 nM. The “Nile Red staining” value (C. elegans) was “decreased”.
In the case of CC12C(=O)N(c3ccc(Cl)c(Cl)c3)C(=O)C1C1C=CC2C1 (centres unmarked) [G6], the Ki (androgen receptor) is reported as 8.6 nM.
O=C(CN1CCN(c2ccccc2)CC1)Nc1cc(C(F)(F)F)ccc1Cl [G7] gave a Ki (dopamine receptor D4) of 1900 nM.
In the case of O=C(Nc1ccccc1C(=O)O)c1ccc(Br)c(S(=O)(=O)N2CCCCC2)c1 [I10], the Ki (PPAR-γ) is reported as 1300 nM.
Molecule Cc1nc(N2CCOCC2)c2oc3ccccc3c2n1 [J6] has a Ki (PI3K p110α) of 4600 nM.
For CC1CCc2c(sc(NC(=O)c3cccs3)c2C(N)=O)C1 (centres unmarked) [K9], the “effect on feeding rate” value (wild-type C. elegans; [6]) was “dose-dependent increase” and the “activity on the predicted mammalian target Flt-3 kinase in vitro” value (flt-3 receptor (CD135); Table S1 (not readable)) was “fail to modulate”.
In the case of O=C1NC(=O)/C(=C\c2ccc(-c3cccc(Br)c3)o2)S1 [L10], the Ki (PI3K p110α) is reported as 2900 nM.
For CC[C@H](NC(=O)c1c(C)c(-c2ccccc2)nc2ccccc12)c1ccccc1 [SB222200, reference compound], the effect on feeding (wild-type C. elegans; wild-type, 200 nM) was “increased feeding”.
